# doi:10.1101/2024.01.14.575554v1 (biorxiv, 2024)
# Target: T1, Hsp60β (Sulfolobus acidocaldarius, UniProt Q9V2T4)
# T1 sequence (Q9V2T4 1-553): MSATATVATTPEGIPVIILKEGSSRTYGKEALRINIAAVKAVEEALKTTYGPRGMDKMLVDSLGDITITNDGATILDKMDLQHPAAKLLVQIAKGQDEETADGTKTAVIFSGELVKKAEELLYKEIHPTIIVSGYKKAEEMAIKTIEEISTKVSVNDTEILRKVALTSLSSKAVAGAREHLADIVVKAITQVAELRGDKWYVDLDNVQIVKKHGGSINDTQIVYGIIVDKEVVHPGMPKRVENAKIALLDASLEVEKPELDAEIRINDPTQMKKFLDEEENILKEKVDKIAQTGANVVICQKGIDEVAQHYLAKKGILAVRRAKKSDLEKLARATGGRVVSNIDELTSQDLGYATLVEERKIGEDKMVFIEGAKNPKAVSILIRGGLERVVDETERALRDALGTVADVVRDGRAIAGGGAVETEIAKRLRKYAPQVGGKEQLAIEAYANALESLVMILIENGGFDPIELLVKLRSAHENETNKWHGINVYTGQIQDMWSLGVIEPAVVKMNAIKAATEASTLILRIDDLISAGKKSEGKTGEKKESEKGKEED
# Assay: FRET titration, tryptophan donor to MANT acceptor
# Assay type: binding
smiles,measurement,value
"CNc1ccccc1C(=O)O[C@H]1[C@@H](O)[C@H](n2cnc3c(N)ncnc32)O[C@@H]1CO[P@@](=O)(O)O[P@](=O)(O)OP(=O)(O)O [MANT-ATP, 2’/3’-(N-methyl-anthraniloyl)-adenosine-5’-triphosphate]",Kd,77.2 ± 3.8 µM
